According to ChEMBL document CHEMBL2074124, “A transfected cell model for the renal toxin transporter, rOCT2” (Toxicol Sci, 1999):

T1: Solute carrier family 22 member 2 (Rattus norvegicus, UniProt Q9R0W2)
T1 sequence (Q9R0W2 whole entry): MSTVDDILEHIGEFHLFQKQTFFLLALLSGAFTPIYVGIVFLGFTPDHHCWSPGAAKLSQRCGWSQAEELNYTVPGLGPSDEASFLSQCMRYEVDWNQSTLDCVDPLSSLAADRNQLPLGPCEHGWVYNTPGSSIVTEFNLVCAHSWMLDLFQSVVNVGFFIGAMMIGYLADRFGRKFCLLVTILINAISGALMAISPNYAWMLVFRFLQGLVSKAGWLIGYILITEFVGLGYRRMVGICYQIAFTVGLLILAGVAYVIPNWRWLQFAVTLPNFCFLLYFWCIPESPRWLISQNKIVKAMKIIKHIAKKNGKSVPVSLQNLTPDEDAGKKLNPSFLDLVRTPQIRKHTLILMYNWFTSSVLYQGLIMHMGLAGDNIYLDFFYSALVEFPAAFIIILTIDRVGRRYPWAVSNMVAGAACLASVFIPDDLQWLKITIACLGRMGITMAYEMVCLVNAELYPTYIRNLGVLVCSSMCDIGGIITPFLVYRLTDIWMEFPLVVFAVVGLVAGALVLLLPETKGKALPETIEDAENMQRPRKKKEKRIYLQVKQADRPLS


Columns and labels:
[1] = target: T1, Solute carrier family 22 member 2; assay: TP_TRANSPORTER: uptake (apical to cell) in OCT2-expressing NIH3T3 cells; format: functional, cell-based; details: mouse
[2] = target: T1, Solute carrier family 22 member 2; assay: TP_TRANSPORTER: inhibition of TEA uptake (apical to cell) in OCT2-expressing NIH3T3 cells; format: functional, cell-based
[3] = substrate: CC[N+](CC)(CC)CC; assay: cells, lysate or membranes named

Molecule | Activity [1] | Ki [2] | other results
COc1cccc2c1C(=O)c1c(O)c3c(c(O)c1C2=O)C[C@@](O)(C(C)=O)C[C@@H]3O[C@H]1C[C@H](N)[C@H](O)[C@H](C)O1 [DAUNORUBICIN] | substrate [+] | – | –
CN/C(=N/CCSCc1nc[nH]c1C)NC#N [CIMETIDINE] | – | 198 µM | –
CC[n+]1c(CC2C=C(C)N=C(c3ccccc3)N2C)ccc2ccccc21 (stereo not given) [Cyanine-863] | – | 0.861 µM | –
CC[C@]1(O)C[C@@H]2CN(CCc3c([nH]c4ccccc34)[C@@](C(=O)OC)(c3cc4c(cc3OC)N(C)[C@H]3[C@@](O)(C(=O)OC)[C@H](OC(C)=O)[C@]5(CC)C=CCN6CC[C@]43[C@@H]65)C2)C1 [VINBLASTINE] | substrate [+] | – | –
Solute carrier family 22 member 2 (Rattus norvegicus) (protein) MSTVDDILEHIGEFHLFQKQTFFLLALLSGAFTPIYVGIVFLGFTPDHHCWSPGAAKLSQRCGWSQAEELNYTVPGLGPSDEASFLSQCMRYEVDWNQSTLDCVDPLSSLAADRNQLPLGPCEHGWVYNTPGSSIVTEFNLVCAHSWMLDLFQSVVNVGFFIGAMMIGYLADRFGRKFCLLVTILINAISGALMAISPNYAWMLVFRFLQGLVSKAGWLIGYILITEFVGLGYRRMVGICYQIAFTVGLLILAGVAYVIPNWRWLQFAVTLPNFCFLLYFWCIPESPRWLISQNKIVKAMKIIKHIAKKNGKSVPVSLQNLTPDEDAGKKLNPSFLDLVRTPQIRKHTLILMYNWFTSSVLYQGLIMHMGLAGDNIYLDFFYSALVEFPAAFIIILTIDRVGRRYPWAVSNMVAGAACLASVFIPDDLQWLKITIACLGRMGITMAYEMVCLVNAELYPTYIRNLGVLVCSSMCDIGGIITPFLVYRLTDIWMEFPLVVFAVVGLVAGALVLLLPETKGKALPETIEDAENMQRPRKKKEKRIYLQVKQADRPLS | – | – | Km [3]: 141 µM
